Counter-ions that a name gives are not always drawn.
What follows are compounds tested on HCV genotype 1b strain Con1 replicon (ET replicon line, Huh7 cells) (assay: HCV ET replicon luciferase assay). Settings: Hepatitis C virus, Huh-7; ET replicon line (Huh7 cells, HCV genotype 1b Con1 replicon), luciferase read-out, 72 hours; compounds in free or salt form.
Type: cell-based
Method: Compounds of the current invention are believed useful in the treatment and/or prophylaxis of conditions and diseases associated with HcV infection. Activity mediated through HCV was determined using an ET replicon line.
The Materials used include a Medium comprised of DMEM (1× liquid, high glucose); Invitrogen cat# 11965-092; 100×Penicillin/Streptomycin solution (10,000 Units/mL); Invitrogen cat# 15140-122; 100×Non-essential amino acid solution (10 mM); Invitrogen cat# 11140-050; Fetal bovine serum; JRH Biosciences cat# 12107-500M; Geneticin (50 mg/mL); Invitrogen cat# 10131-035
The Luciferase assay reagents include Steady-Glo Luciferase assay system, cat# E2550 (Promega)
The ET replicon line (see Lohmann et al. (1999), Replication of subgenomic hepatitis C virus RNAs in a hepatoma cell line. Science 285:110-113; Krieger et al. (2001), Enhancement of hepatitis C virus RNA replication by cell culture-adaptive mutations. J. Virol. 75: 4614-4624; and Vrolijk et al. (2003), A replicon-based bioassay for the measurement of interferons in patients with chronic hepatitis C. J. Virol. Meth. 110: 201-209, each herein incorporated by reference with regard to the ET replicon line), includes Huh7 cells stably transfected with HCV genotype 1b strain Con1 replicon. This replicon expresses the firefly luciferase, has the coding region for ubiquitin inserted upstream of the neomycin gene, and carries three cell culture-adaptive mutations that enhance RNA replication cooperatively (E1202G, T1280I, and S2197P). The ET cell line was obtained under license from: ReBLikon GmbH, Nach dem alten Schloss 22, 55239 Gau-Odernheim, Germany.
Cells are maintained at 37° C., 5% CO2, in DMEM with 10% FCS, 1× penicillin/streptomycin, 1× non-essential amino acids, 0.5 mg/mL Geneticin. For passage, cells are washed once with PBS, and incubated at 37° C. with sufficient trypsin (0.05%)/versene to cover the monolayer. Once detached from the flask, cells are mixed with several mLs of DMEM+10% FBS to inactivate the trypsin, then diluted appropriately (usually 1 in 5 or 1 in 10) with sufficient medium to pass to a new flask. For a T225 flask, 40-50 mLs total volume of cells+medium is typically used. To prevent the density dependent drop in replicon RNA, the ET cell line is maintained at sub-confluent (60-80%) levels.
Compounds are diluted in DMSO across the first 10 wells of a Costar V-bottom 96-well plate using a Biomek 2000 Workstation (Beckman-Coulter), with 0.5 log10 dilution intervals. DMSO only is added to the last two columns of the plate. The top concentration of drug in this master plate is typically 2.5 mM. A 1/5 dilution of the compounds is made by adding DMEM+10% FBS with a multichannel pipettor, giving a top concentration of 500 μM. 5 μL of diluted compounds is transferred into black Costar flat bottom 96-well daughter plates using a RapidPlate workstation (Zymark).
Cells are grown to approximately 80% confluency and trypsinised as described above. Cells are counted in a Levy Hemocytometer and diluted to 20,000 cells/ml in DMEM containing 10% FBS, 1× penicillin/streptomycin, 1×NEAAs. (Note: Geneticin is omitted for the assay).
245 μL cell suspension is added to the first 11 columns of the daughter plates prepared as above using a Multidrop dispenser (Titertek). Thus, 5,000 cells are added per well, and the final top concentration of each compound is 10 μM. The twelfth column of each plate is used to generate background readings for the assay. […]

SMILES | IC50
Clc1ccc2[nH]c3c(c2c1)CCCC3Nc1ccccc1 (centres unmarked) [Example 14, 6-Chloro-N-phenyl-2,3,4,9-tetrahydro-1H-carbazol-1-amine] | 0.005 µM
Brc1ccc2[nH]c3c(c2c1)CCCC3Nc1ccccc1 (centres unmarked) [Example 13, 6-Bromo-N-Phenyl-2,3,4,9-tetrahydro-1H-carbazol-1-amine] | 0.01 µM
Clc1ccc2[nH]c3c(c2c1)CCCC3Nc1ncccn1 (centres unmarked) [Example 23, 6-Chloro-N-pyrimidin-2-yl-2,3,4,9-tetrahydro-1H-carbazol-1-amine] | 0.052 µM
Brc1ccc2[nH]c3c(c2c1)CCCCC3Nc1ncccn1 (centres unmarked) [Example 38, 2-Bromo-N-pyrimidin-2-yl-5,6,7,8,9,10-hexahydrocyclohepta[b]indol-6-amine] | 0.039 µM
Brc1ccc2[nH]c3c(c2c1)CCCC3Nc1ccccn1 (centres unmarked) [Example 27, 6-Bromo-N-pyridin-2-yl-2,3,4,9-tetrahydro-1H-carbazol-1-amine Hydrochloride] | 0.008 µM

— patent US20090156621A1, “HCV INHIBITORS” (priority 2004, published 2009)
